Experimental data as given in patent publication EP0966464B1, “SUBSTITUTED 2,4-DIAMINOPYRIMIDINES” (priority 1997, dated 1998).

Key:
Experiment in all cases: Inhibition of purified bacterial dihydrofolate reductase (method of Baccanari and Joyner)
Assay type in all cases: biochemical
[1] = target: T1, purified DHFR of the multiresistant strain Streptococcus pneumoniae 1/1 (Streptococcus pneumoniae serotype 4, UniProt Q54801); details: read-out: IC50 values S.pneumoniae 1/1, IC50 determined by means of a graph
T1 sequence (Q54801 1-168): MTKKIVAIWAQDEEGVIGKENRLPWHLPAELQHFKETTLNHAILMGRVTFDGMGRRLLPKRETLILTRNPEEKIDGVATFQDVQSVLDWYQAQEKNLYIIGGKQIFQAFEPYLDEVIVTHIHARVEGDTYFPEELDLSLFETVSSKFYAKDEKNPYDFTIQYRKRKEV
Source text: (§1) The inhibition of this enzyme was taken as a measurement of the antibacterial activity.

[2] = target: purified DHFR of the reference strain S. aureus ATCC 25923 (Staphylococcus aureus, UniProt P0A017)
Source text: as §1

[3] = target: purified DHFR of the multiresistant strain S. aureus 157/4696 (Staphylococcus aureus, UniProt P0A017); details: read-out: IC50 values S.aureus 157/4696, IC50 determined by means of a graph
Source text: as §1

Compound	IC50 [1] [nM]	IC50 [2] [nM]	IC50 [3] [nM]
COc1cc(Cc2cnc(N)nc2N)cc(/C=C/C(=O)N2N=Cc3ccccc3C2CCCCO)c1OC (racemic) [F, (E)-(RS)-3-[5-(2,4-Diamino-pyrimidin-5-ylmethyl)-2,3-dimethoxyphenyl]-1-[1-(4-hydroxy-butyl)-1H-phthalazin-2-yl]-propenone]	9	1	3
COc1cc(Cc2cnc(N)nc2N)cc(/C=C/C(=O)N2N=Cc3ccccc3C2c2ccc(CO)cc2)c1OC (racemic) [C, (E)-(RS)-3-[5-(2,4-Diamino-pyrimidin-5-ylmethyl)-2,3-dimethoxyphenyl]-1-[1-(4-hydroxymethyl-phenyl)-1H-phthalazin-2-yl]-propenone]	2	1	1
COc1cc(Cc2cnc(N)nc2N)cc(/C=C/C(=O)N2N=Cc3ccccc3C2c2ccc(O)cc2)c1OC (racemic) [D, (E)-(RS)-3-[5-(2,4-Diamino-pyrimidin-5-ylmethyl)-2,3-dimethoxyphenyl]-1-[1-(4-hydroxy-phenyl)-1H-phthalazin-2-yl]-propenone]	9	2	3
CCCC1c2ccccc2C=NN1C(=O)/C=C/c1cc(Cc2cnc(N)nc2N)cc(OC)c1OC (racemic) [G, (E)-(RS)-3-{5-(2,4-Diamino-pyrimidin-5-ylmethyl)-2,3-dimethoxyphenyl}-1-(1-propyl-1H-phthalazin-2-yl)-propenone]	5	2	6
COc1cc(Cc2cnc(N)nc2N)cc(/C=C/C(=O)N2N=Cc3ccccc3C2c2ccccc2)c1OC (racemic) [A, (E)-(RS)-3-[5-(2,4-Diamino-pyrimidin-5-ylmethyl)-2,3-dimethoxyphenyl]-1-(1-phenyl-1H-phthalazin-2-yl)-propenone]	12	2	2
COc1cc(Cc2cnc(N)nc2N)cc(/C=C/C(=O)N2N=Cc3ccccc3C2c2cnc(C)nc2)c1OC (racemic) [K, (E)-(RS)-3-[5-(2,4-Diamino-pyrimidin-5-ylmethyl)-2,3-dimethoxyphenyl]-1-[1-(2-methyl-pyrimidin-5-yl)-1H-phthalazin-2-yl]-propenone]	2.5	0.6	0.6
CCC1c2ccccc2C=NN1C(=O)/C=C/c1cc(Cc2cnc(N)nc2N)cc(OC)c1OC (racemic) [E, (E)-(RS)-3-[5-(2,4-Diamino-pyrimidin-5-ylmethyl)-2,3-dimethoxyphenyl]-1-(1-ethyl-1H-phthalazin-2-yl)-propenone]	18	2	12
COc1cc(Cc2cnc(N)nc2N)cc(/C=C/C(=O)N2N=Cc3ccccc3[C@@H]2c2ccc(C)nc2)c1OC [H, (E)-(R)-3-[5-(2,4-Diamino-pyrimidin-5-ylmethyl)-2,3-dimethoxy-phenyl]-1-[1-(6-methyl-pyridin-3-yl)-1H-phthalazin-2-yl]-propenone]	1.2	0.3	0.4
COc1cc(Cc2cnc(N)nc2N)cc(/C=C/C(=O)N2N=Cc3ccccc3C2c2ccc(C)nc2)c1OC (racemic) [I, (E)-(RS)-3-[5-(2,4-Diamino-pyrimidin-5-ylmethyl)-2,3-dimethoxyphenyl)-1-[1-(6-methyl-pyridin-3-yl)-1H-phthalazin-2-yl]-propenone]	0.4	0.4	0.4
COc1cc(Cc2cnc(N)nc2N)cc(/C=C/C(=O)N2N=Cc3ccccc3C2c2ccco2)c1OC (racemic) [B, (E)-(RS)-3-[5-(2,4-Diamino-pyrimidin-5-ylmethyl)-2,3-dimethoxyphenyl]-1-(1-furan-2-yl-1H-phthalazin-2-yl)-propenone]	22	2	8
CCc1ccc(C2c3ccccc3C=NN2C(=O)/C=C/c2cc(Cc3cnc(N)nc3N)cc(OC)c2OC)cn1 (racemic) [J, (E)-(RS)-3-[5-(2,4-Diamino-pyrimidin-5-ylmethyl)-2,3-dimethoxyphenyl]-1-[1-(6-ethyl-pyridin-3-yl)-1H-phthalazin-2-yl]-propenone]	1.5	0.3	0.2
